Numbers after ± are expanded uncertainties.
Experiment: molar enthalpy of vaporization or sublimation
Settings: Calvet microcalorimetry

| Compound | molar enthalpy (298.15 K, Crystal) [kcal/mol] | molar enthalpy (298.15 K, Liquid) [kcal/mol] | molar enthalpy (329.2 K, Liquid) [kcal/mol] |
| --- | --- | --- | --- |
| Oc1ccc(Br)cc1 [4-bromophenol] | 19.9 ± 0.765 |  |  |
| Oc1ccccc1Br [phenol, 2-bromo-] |  | 13.3 ± 0.621 | 13.3 ± 0.621 |

Source: the NIST ThermoML archive (doi:10.1016/j.jct.2009.04.017)
